Experimental data: PMC5193436 (PLoS ONE, 2016)

Target: T1, Enolase 1 (αEnolase) (Homo sapiens, UniProt P06733)
T1 construct: gene ENO1; recombinant ENO1
Assay: direct spectrophotometric PEP assay ([…] nm) with purified recombinant ENO1; NADH-coupled assay in lysates
Format: biochemical

T1 sequence (P06733 2-434): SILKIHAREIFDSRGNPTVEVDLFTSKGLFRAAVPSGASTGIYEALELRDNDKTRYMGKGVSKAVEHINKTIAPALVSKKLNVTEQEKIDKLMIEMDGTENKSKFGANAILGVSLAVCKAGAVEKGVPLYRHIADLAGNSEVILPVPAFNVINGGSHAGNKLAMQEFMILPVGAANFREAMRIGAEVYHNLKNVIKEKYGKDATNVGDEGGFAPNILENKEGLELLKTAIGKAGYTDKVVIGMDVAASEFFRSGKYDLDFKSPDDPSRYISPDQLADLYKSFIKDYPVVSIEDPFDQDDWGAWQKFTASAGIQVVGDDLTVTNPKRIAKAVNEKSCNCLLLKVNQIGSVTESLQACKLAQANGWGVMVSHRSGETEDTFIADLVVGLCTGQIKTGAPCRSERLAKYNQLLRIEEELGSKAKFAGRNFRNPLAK

## O=C1C(P(=O)(O)O)CC(O)N1O (stereo not shown) [SF2312, 3-dihydroxyphosphoryl-1,5-dihydroxy-2-pyrrolidone]
  direct spectrophotometric PEP assay (240 nm) with purified recombinant ENO1; NAD: SF2312 (c) on Enolase activity in purified recombinant ENO1 and ENO2 was determined using the direct PEP-detection assay
